Publication PMC10457778, “Effects of In Vitro Digestion of Polyphenols from Coffee on Binding Parameters to Human Topoisomerase II α” (Molecules, 2023)
Marks after values point to notes of the source that are not given here.

Assays:
[1] = target: T1, Topoisomerase II α human (Homo sapiens, UniProt P11388); test: Isothermal titration calorimetry (ITC) of interactions with TOPIIα; format: binding; conditions: single compounds; for ∆G (kJ/mol) ITC / ∆H (kJ/mol) ITC: 36.6 °C, mean ± SD, n = 6
T1 construct: purchased Sigma Aldrich (St. Louis, MO, USA)
Protocol: The parameters of interactions of coffee and its components with TOPIIα were carried out using the isothermal titration calorimetry (ITC) (MicroCal PEAQ-ITC 200, Malvern, Worcestershire, UK). Analyses were carried out according to Grzelczyk et al., with some modifications. A calorimeter cell with a capacity of 0.2 mL was filled with 0.1 μmol/L of TOPIIα solution in ultrapure water (deionized, LC-MS grade); the syringe was subsequently filled with titrants as degassed aqueous solutions of chlorogenic acids (CHAs); green, light-, or dark-roasted coffee extracts; coffee fraction; before and after in vitro digestion, at concentrations of 10 mmol/L (coffee extracts at concentrations of 0.1 mmol/L calculated based on 5-caffeoylquinic acid). The measurements were carried out at 36.6 °C with continuous stirring at 307 rpm (10 injections, 25 min). During the ITC analysis, an exothermic or endothermic reaction was recorded, when the binding of compounds to the enzyme occurred. The heat was generated as a consequence of ligand-to-protein binding, which is observed as an energy peak (raw data of heat in […]). The titration of a ligand into water was performed to subtract the energetic effects of dilution. The enthalpy changes (∆H), Gibbs free energy changes (∆G), and entropy changes (∆S) were calculated from the ITC titration nonlinear least squares saturation curve fitting carried out using MicroCal PEAQ-ITC200 software 1.30 [40].

[2] = test system: human topoisomerase IIα; set-up: method as in PMID 18461976; conditions: 100 μM solutions; cited from earlier work
[3] = listed as 4,5-di-O-caffeoylquinic acid

T1 sequence (P11388 whole entry): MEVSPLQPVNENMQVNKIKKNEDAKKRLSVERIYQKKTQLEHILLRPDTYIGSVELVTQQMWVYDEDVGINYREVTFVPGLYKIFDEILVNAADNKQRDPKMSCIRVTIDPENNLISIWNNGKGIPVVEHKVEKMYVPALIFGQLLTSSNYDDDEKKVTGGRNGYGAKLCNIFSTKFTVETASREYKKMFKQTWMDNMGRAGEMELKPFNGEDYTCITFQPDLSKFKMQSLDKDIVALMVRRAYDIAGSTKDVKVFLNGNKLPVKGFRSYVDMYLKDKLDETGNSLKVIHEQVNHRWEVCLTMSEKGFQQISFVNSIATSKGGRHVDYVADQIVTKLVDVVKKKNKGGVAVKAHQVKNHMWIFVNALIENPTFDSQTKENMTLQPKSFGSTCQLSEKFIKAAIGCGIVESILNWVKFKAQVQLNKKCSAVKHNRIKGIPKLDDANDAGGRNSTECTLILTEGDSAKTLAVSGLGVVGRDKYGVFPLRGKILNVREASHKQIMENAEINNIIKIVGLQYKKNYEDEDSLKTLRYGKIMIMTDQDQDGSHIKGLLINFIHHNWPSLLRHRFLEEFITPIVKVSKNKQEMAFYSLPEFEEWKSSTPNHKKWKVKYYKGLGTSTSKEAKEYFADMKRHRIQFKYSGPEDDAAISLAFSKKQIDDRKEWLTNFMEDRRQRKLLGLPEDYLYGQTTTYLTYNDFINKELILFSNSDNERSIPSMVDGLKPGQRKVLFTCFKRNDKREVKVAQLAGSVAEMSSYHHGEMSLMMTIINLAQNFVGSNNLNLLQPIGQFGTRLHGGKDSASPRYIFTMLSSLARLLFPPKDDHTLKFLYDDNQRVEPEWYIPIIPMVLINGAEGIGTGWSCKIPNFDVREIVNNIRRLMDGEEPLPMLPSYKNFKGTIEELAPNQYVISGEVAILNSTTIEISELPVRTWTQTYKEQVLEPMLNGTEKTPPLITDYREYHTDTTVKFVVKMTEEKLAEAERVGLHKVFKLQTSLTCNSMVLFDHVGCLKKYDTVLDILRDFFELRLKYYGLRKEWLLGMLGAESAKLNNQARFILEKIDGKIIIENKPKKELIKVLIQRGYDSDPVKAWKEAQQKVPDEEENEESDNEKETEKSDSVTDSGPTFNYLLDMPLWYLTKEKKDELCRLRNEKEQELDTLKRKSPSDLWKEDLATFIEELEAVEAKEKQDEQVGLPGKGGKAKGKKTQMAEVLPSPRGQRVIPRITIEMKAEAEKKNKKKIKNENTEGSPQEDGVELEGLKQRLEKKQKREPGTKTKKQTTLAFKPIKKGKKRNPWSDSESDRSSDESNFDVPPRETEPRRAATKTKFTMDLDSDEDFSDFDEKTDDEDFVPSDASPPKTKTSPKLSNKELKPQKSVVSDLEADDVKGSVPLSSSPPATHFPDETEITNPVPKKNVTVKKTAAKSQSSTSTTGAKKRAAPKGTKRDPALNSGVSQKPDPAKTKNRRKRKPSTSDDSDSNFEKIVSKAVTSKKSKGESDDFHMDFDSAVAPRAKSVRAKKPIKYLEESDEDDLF

SMILES | ∆G (kJ/mol) ITC [1] | ∆H (kJ/mol) ITC [1] | mode of action on human topoisomerase IIα [2] | also measured
C=CC(N)=O [Acrylamide] |  |  |  | interactions with TOPIIα in ITC measurements [1]: did not show significant interactions
O=C(C=Cc1ccc(O)c(O)c1)OC1CC(O)(C(=O)O)CC(OC(=O)C=Cc2ccc(O)c(O)c2)C1O (centres unmarked) [3,5-Di-O-caffeoylquinic acid] | −33.87 ± 1.39 ^a kJ/mol | −8.00 ± 0.45 ^c,a kJ/mol |  | 
O=c1c(O)c(-c2ccc(O)cc2)oc2cc(O)cc(O)c12 [kaempferol] |  |  | redox-dependent poisons rather than the enzyme inhibitors | 
Cn1c(=O)c2c(ncn2C)n(C)c1=O [Caffeine, reference compound] | −34.50 ± 1.15 ^d kJ/mol | −6.28 ± 0.45 ^e kJ/mol |  | 
O=Cc1ccc(CO)o1 [5-(Hydroxymethyl)furfural] |  |  |  | interactions with TOPIIα in ITC measurements [1]: did not show significant interactions
O=c1c(O)c(-c2ccc(O)c(O)c2)oc2cc(O)cc(O)c12 [quercetin] |  |  | redox-dependent poisons rather than the enzyme inhibitors | 
O=C(O)/C=C/c1ccc(O)c(O)c1 [Caffeic acid] | −33.54 ± 1.09 ^a kJ/mol | −9.04 ± 0.25 ^a kJ/mol |  | 
O=C(C=Cc1ccc(O)c(O)c1)OC1CC(O)(C(=O)O)CC(O)C1OC(=O)C=Cc1ccc(O)c(O)c1 (centres unmarked) [4,5-Di-O-caffeoylquinic acid] | −37.64 ± 1.35 ^c kJ/mol | −1.78 ± 0.15 ^d kJ/mol |  | ∆G (kJ/mol) ITC [1, 3]: -37.64 kJ/mol; ∆H (kJ/mol) ITC [1, 3]: -1.78 kJ/mol
O=C(O)CCc1ccc(O)c(O)c1 [Dihydrocaffeic acid] | −34.42 ± 1.33 ^d kJ/mol | −6.49 ± 0.29 ^e kJ/mol |  | 
O=c1c(O)c(-c2cc(O)c(O)c(O)c2)oc2cc(O)cc(O)c12 [myricetin] |  |  | redox-dependent poisons rather than the enzyme inhibitors | 
